Assay results as given in US9616101B2, “Differentiation marker and differentiation control of eye cell” (Kyoto Prefectural Public University Corporation, priority 2012, dated 2017).
“Also recorded” adds a separate entry of the source.

How the values were obtained:
Type in all cases: cell-based
[1] = system: cultured human corneal endothelial cell; assay: Ki-67 immunostaining and cell morphology of cultured human corneal endothelial cell treated with Hedgehog signal modulators; conditions: primary human corneal endothelial cell, 2 μM cyclopamine, 3 days; for Ki-67 expression (cell proliferation) as compared with a control: 100 ng/ml rhShh, 2 μM purmorphamine
Procedure: (§1) After 3 days, immunostain of GPR49/LGR5 and Ki-67 was performed. In addition, RNA of a corneal endothelial cell incubated under the same conditions was extracted, and the amount of expression of mRNA was measured by real time PCR.

GPR49/LGR5 expression [2] = assay: GPR49/LGR5 expression in human corneal tissue treated with Hedgehog signal modulators; conditions: 100 ng/ml rhShh, 10 μM purmorphamine, 10 μM cyclopamine, 3 days
From the text: (§2) A corneal tissue was embedded with OCT compound (catalog No.: 4583; Sakura Finetek, Tokyo, Japan), and frozen in liquid nitrogen to prepare a frozen corneal tissue section. The frozen block was sliced to 8 μm, applied on a silane-coating slide, and air-dried. For preparing the whole tissue section, a Descemet's membrane containing a corneal endothelial cell was peeled from a corneal tissue, allowed to stand in ice-cooled 100% acetone for 30 seconds, applied on a silane-coating slide, and air-dried. As a cultured corneal endothelial cell, a cell cultured on a LabTek 8-well plastic chamber slide was used. Ice-cooled 100% acetone was added to a corneal tissue and the cultured cell, the resultant was allowed to stand at 4° C. for 15 minutes to fix the cell. After shaking and washing with 0.15% TritonX/PBS-, 1% bovine serum albumin (catalog No.: A4503BSA; Sigma-Aldrich, St. Louis, Mo.) was added, and allowed to stand at room temperature for 30 minutes to perform blocking. A primary antibody was diluted with 1% BSA, and incubated at room temperature for 1 hour. As a primary antibody to be used, anti-rabbit GPR49/LGR5 (catalog No.: GTX71143; 1: 200; GeneTex Inc., San Antonio, Tex.), anti-rabbit Nestin (catalog No.: PRB-570C; 1: 200; COVANCE, Berkeley, Calif.), anti-mouse ABCG2 (catalog No.: NC_236; 1: 2; Kamiya biomedical CO., Seattle, Wash. USA), anti-mouse Ki-67 (catalog No.: 556003; 1: 200 BD Pharmingen™ NJ, USA), anti-rabbit Na^+/K^+ ATPase (catalog No.: A132; 1: 100; Zymed), and anti-rabbit ZO1 (Zymed Laboratries Inc., South San Francisco, Calif.) were used. The resultant was washed with 0.15% Triton/PBS- twice, and PBS- once.
For extracting RNA from a corneal tissue and a cultured cell, RNeasy Mini Kit (catalog No.: 74106; QIAGEN, Valencia, Calif.) was used. Added was 1 μl of OligodT Primer (catalog No.: 18418-020; Invitrogen) per 1 μg of the extracted RNA, and the resultant was incubated at 70° C. for 2 minutes, and immediately ice-cooled. […] The resulting data were analyzed by ABI PRISM (registered trademark) 7000 Sequence Detection System. […]

GPR49/LGR5 expression [3] = assay: GPR49/LGR5 expression in cultured human corneal endothelial cell treated with Hedgehog signal modulators; conditions: primary human corneal endothelial cell; 100 ng/ml rhShh, 2 μM purmorphamine, 2 μM cyclopamine; 3 days
Procedure: as §1

[4] = system: human corneal endothelial cell; assay: Ki67 immunostaining of human corneal endothelial cells incubated with RSPO1 to 4
From the text: as §2
A secondary antibody was diluted with a mixed solution of 1% BSA and 0.15% TrironX/PBS-, and incubated at room temperature for 30 minutes. As a secondary antibody to be used, Alexa™ Fluor 488-labeled (conjugated) goat anti-rabbit IgG (catalog No.: A11034; 1: 1500; Molecular Probe-Invitrogen) and Alexa™ Fluor 488-labeled (conjugated) goat anti-mouse IgG (catalog No.: A11029; 1: 1500; Molecular Probe-Invitrogen) were used. The secondary antibody was shaken and washed with 0.15% Triton/PBS- twice, and PBS- once, subjected to nuclear staining with propidium iodide (catalog No.: SP29004-41; PI; Nacalai Tesque, Inc. Kyoto, Japan), and embedded while covered with a cover glass.
In order to investigate a relationship between R-sporadin 1 (RSPO1), R-spondin 2 (RSPO2), R-spondin 3 (RSPO3), or R-spondin 4 (RSPO4) and differentiation of a corneal endothelial cell, the relationship was studied using RSPO1. Reagents used are as follows. • RSPO1 R&D systems catalog No.: 4645-RS • RSPO2 R&D systems catalog No.: 3266-RS • RSPO3 R&D systems catalog No.: 3500-RS • RSPO4 R&D systems catalog No.: 4575-RS
Then, for the purpose of investigating the influence of RSPO on cell proliferation, RSPO1 to 4 were incubated into a human corneal endothelial cell under conditions of 37° C. and 5% CO2 for 1 day. Thereafter, Ki-67 being a cell proliferation marker was immunostained.

In the case of c1ccc2c(Oc3nc(Nc4ccc(N5CCOCC5)cc4)c4ncn(C5CCCCC5)c4n3)cccc2c1 [purmorphamine, N-(4-morpholinophenyl)-2-(1-naphthyloxy)-9-cyclohexyl-9H-purine-6-amine], the “Ki-67 expression (cell proliferation) as compared with a control” value (“Ki-67 expression … compared with a control” for short) [1] is reported as “elevated; also recorded: upregulated” and the “expression of GPR49/LGR5 as compared with a control (immunostaining; same result at the mRNA expression level)” value (GPR49/LGR5 expression [2]) is reported as “remarkable increase (upregulation)”.

For “rhShh: recombinant human Sonic hedgehog, ligand of the Hedgehog pathway binding to Ptch1”, the “Ki-67 expression … compared with a control” value [1] was “elevated”, the “Ki-67 expression … compared with a control” value ([1]; listed as SHH) was “upregulated” and the “cell expressing GPR49/LGR5” value (GPR49/LGR5 expression [3]) was “confirmed”. For the same molecule, the “expression of GPR49/LGR5 as compared with a control (immunostaining; same result at the mRNA expression level)” value (GPR49/LGR5 expression [2]) was “remarkable increase (upregulation)”.

In the case of CC1=C2C[C@H]3[C@@H](CC=C4C[C@@H](O)CC[C@@]43C)[C@@H]2CC[C@]12O[C@@H]1C[C@H](C)CN[C@H]1[C@H]2C [cyclopamine], the “Ki-67 expression … compared with a control” value [1] is reported as “suppression of cell proliferation; also recorded: not upregulated”, the cell morphology [1] is reported as “abnormality of cell morphology; also recorded: could not maintain a normal hexagonal form” and the “expression of GPR49/LGR5 as compared with a control (immunostaining; same result at the mRNA expression level)” value (GPR49/LGR5 expression [2]) is reported as “clear expression suppression”.

B1: RSPO4: human recombinant R-spondin 4, R&D systems catalog No. 4575-RS (protein, UniProt Q2I0M5 20-234, looked up)
R-spondin-4: LNRRKKQVGTGLGGNCTGCIICSEENGCSTCQQRLFLFIRREGIRQYGKCLHDCPPGYFGIRGQEVNRCKKCGATCESCFSQDFCIRCKRQFYLYKGKCLPTCPPGTLAHQNTRECQGECELGPWGGWSPCTHNGKTCGSAWGLESRVREAGRAGHEEAATCQVLSESRKCPIQRPCPGERSPGQKKGRKDRRPRKDRKLDRRLDVRPRQPGLQP
B1 was tested, and the “Ki67-positive cell rate as compared with a control” value ([4]; RSPO4 50 ng/ml, 500 ng/ml (FIG. 14)) was “slightly increased”.

B2: RSPO3: human recombinant R-spondin 3, R&D systems catalog No. 3500-RS (protein, listed as Homo sapiens)
chain: MHLRLISWLFIILNFMEYIGSQNASRGRRQRRMHPNVSQGCQGGCATCSDYNGCLSCKPRLFFALERIGMKQIGVCLSSCPSGYYGTRYPDINKCTKCKADCDTCFNKNFCTKCKSGFYLHLGKCLDNCPEGLEANNHTMECVSIVHCEVSEWNPWSPCTKKGKTCGFKRGTETRVREIIQHPSAKGNLCPPTNETRKCTVQRKKCQKGERGKKGRERKRKKPNKGESKEAIPDSKSLESSKEIPEQRENKQQQKKRKVQDKQKSVSVSTVH
With B2 the “Ki67-positive cell rate as compared with a control” value ([4]; RSPO3 50 ng/ml, 200 ng/ml (FIG. 13)) was “slightly increased”.

B3: RSPO2: human recombinant R-spondin 2, R&D systems catalog No. 3266-RS (protein, listed as Homo sapiens)
chain: MQFRLFSFALIILNCMDYSHCQGNRWRRSKRASYVSNPICKGCLSCSKDNGCSRCQQKLFFFLRREGMRQYGECLHSCPSGYYGHRAPDMNRCARCRIENCDSCFSKDFCTKCKVGFYLHRGRCFDECPDGFAPLEETMECVEGCEVGHWSEWGTCSRNNRTCGFKWGLETRTRQIVKKPVKDTILCPTIAESRRCKMTMRHCPGGKRTPKAKEKRNKKKKRKLIERAQEQHSVFLATDRANQ
B3 was tested, and the “Ki67-positive cell rate as compared with a control” value ([4]; RSPO2 50 ng/ml, 100 ng/ml (FIG. 12)) was “slightly increased”.
